{"source": "ChEMBL document CHEMBL3508693", "about": "(2016)", "key": {"[1]": {"assay": "Absorption (0-168h) of total radioactivity following single oral administration of [14C] aliskiren hemifumarate at 3 mg.Kg-1 level in marmoset", "format": "ADME, organism-based, Callithrix jacchus, Plasma", "conditions": "in vivo"}, "[2]": {"assay": "Excretion (0-24h) of radioactivity in faeces following intravenous administration of [14C] aliskiren hemifumarate at 1 mg.Kg-1 level in marmoset", "format": "ADME, organism-based, Callithrix jacchus, Feces", "conditions": "in vivo"}, "[3]": {"assay": "Excretion of radioactivity (0-72h) in urine following single intravenous dose of 10 mg.Kg-1 [14C] aliskiren hemifumarate in mouse", "format": "ADME, organism-based, TgRasH2", "conditions": "in vivo"}, "[4]": {"assay": "Mean excretion of radioactivity (0-72h) in urine and faeces following single oral dose of 500 mg.Kg-1 [14C] aliskiren hemifumarate in mouse", "format": "ADME, organism-based, TgRasH2, Urine/Feces", "conditions": "in vivo"}, "[5]": {"assay": "% of radioactivity (48h) recovered in faeces of receiver rat following duodenal infusion of radioactivity through bile from donor rat treated with single intravenous administration of 10 mg.Kg-1 [14C] aliskiren hemifumarate", "format": "ADME, organism-based, HAN:WIST(SPF), Feces", "conditions": "in vivo"}, "[6]": {"target": "Cytochrome P450 2D6 (Homo sapiens, UniProt P10635)", "sequence (P10635 whole entry)": "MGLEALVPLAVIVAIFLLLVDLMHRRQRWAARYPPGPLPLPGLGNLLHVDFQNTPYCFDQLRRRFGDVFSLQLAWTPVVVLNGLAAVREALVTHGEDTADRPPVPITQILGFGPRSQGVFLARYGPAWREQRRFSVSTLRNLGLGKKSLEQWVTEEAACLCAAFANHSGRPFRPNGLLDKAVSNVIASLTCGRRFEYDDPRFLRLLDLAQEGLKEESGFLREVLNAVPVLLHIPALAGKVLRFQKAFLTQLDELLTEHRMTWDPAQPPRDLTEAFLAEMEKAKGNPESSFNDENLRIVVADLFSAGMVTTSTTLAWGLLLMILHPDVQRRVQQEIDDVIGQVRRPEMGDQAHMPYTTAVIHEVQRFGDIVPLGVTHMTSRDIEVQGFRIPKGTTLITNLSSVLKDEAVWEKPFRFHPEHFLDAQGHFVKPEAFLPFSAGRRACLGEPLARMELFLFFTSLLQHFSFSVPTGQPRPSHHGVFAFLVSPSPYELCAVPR", "assay": "Metabolic clearance (ul.min.nmol-1 CYP) of aliskiren hemifumarate for CYP2D6 was determined in human liver microsome incubated with [14C]SPP100 hemifumarate", "format": "ADME", "conditions": "microsomes"}, "[7]": {"assay": "Excretion of radioactivity (72-96h) in urine following single intravenous dose of 10 mg.Kg-1 [14C] aliskiren hemifumarate in rat", "format": "ADME, organism-based, Albino HAN:WIST", "conditions": "in vivo"}, "[8]": {"assay": "Tmax of radioactivity following repeated oral administration of [14C] aliskiren hemifumarate at 100 mg.Kg-1 level studied after 2h of dosing on day 10 in rat", "format": "ADME, organism-based, Albino HAN:WIST", "conditions": "in vivo"}, "[9]": {"assay": "Tmax (0-168h) of total radioactivity following single intravenous administration of [14C] aliskiren hemifumarate at 1 mg.Kg-1 level in marmoset", "format": "ADME, organism-based, Callithrix jacchus, Plasma", "conditions": "in vivo"}, "[10]": {"assay": "Cmax (0-168h) of total radioactivity following single oral administration of [14C] aliskiren hemifumarate at 3 mg.Kg-1 level in marmoset", "format": "ADME, organism-based, Callithrix jacchus, Plasma", "conditions": "in vivo"}, "[11]": {"assay": "AUC (0-96 or 0-168h) of total radioactivity following single oral administration of [14C] aliskiren hemifumarate at 3 mg.Kg-1 level in marmoset", "format": "ADME, organism-based, Callithrix jacchus, Plasma", "conditions": "in vivo"}, "[12]": {"assay": "AUC (0-96 or 0-168h) of total radioactivity following single intravenous administration of [14C] aliskiren hemifumarate at 1 mg.Kg-1 level in marmoset", "format": "ADME, organism-based, Callithrix jacchus, Plasma", "conditions": "in vivo"}, "[13]": {"target": "Cytochrome P450 2E1 (Homo sapiens, UniProt P05181)", "sequence (P05181 whole entry)": "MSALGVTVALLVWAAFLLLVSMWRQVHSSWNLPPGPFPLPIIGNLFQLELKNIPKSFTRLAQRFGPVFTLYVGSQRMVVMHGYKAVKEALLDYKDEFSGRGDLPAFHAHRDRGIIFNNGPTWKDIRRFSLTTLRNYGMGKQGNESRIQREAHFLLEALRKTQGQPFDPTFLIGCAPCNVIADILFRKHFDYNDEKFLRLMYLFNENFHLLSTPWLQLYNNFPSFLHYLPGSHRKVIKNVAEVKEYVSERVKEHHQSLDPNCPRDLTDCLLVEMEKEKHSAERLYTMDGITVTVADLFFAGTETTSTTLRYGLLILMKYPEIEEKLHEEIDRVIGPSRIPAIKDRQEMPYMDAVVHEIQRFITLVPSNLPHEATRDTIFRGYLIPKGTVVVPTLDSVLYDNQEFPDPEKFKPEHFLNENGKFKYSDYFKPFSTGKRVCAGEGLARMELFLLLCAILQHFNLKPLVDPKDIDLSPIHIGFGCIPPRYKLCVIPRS", "assay": "Activity of human recombinant CYP2E1 assessed as enzyme contribution (% total relative CL) towards [14C]SPP100 hemifumarate metabolism in human liver microsome", "format": "ADME", "conditions": "microsomes"}, "[14]": {"assay": "Cmax of aliskiren hemifumarate following single dosing of SPP100B oral solution at 640 mg level studied on day 1 in men", "format": "ADME, organism-based", "conditions": "male, human, plasma"}, "[15]": {"assay": "Tmax of aliskiren hemifumarate following single dosing of SPP100B oral solution at 80 mg level studied on day 1 in men", "format": "ADME, organism-based", "conditions": "male, human, plasma"}, "[16]": {"assay": "AUC of aliskiren hemifumarate following single dosing of SPP100B oral solution at 640 mg level studied on day 1 in men", "format": "ADME, organism-based", "conditions": "male, human, plasma"}, "[17]": {"assay": "Tmax of unlabeled aliskiren hemifumarate following single oral dose of aliskiren hemifumarate at 500 mg.Kg-1 level in mouse", "format": "ADME, organism-based", "conditions": "TgRasH2, mouse, plasma"}, "[18]": {"assay": "Effect of 4 week oral dietary dosing of aliskiren hemifumarate at 2000 mg.Kg-1 level on ovarian follicular atresia in female mouse", "format": "toxicity, organism-based, CB6F1-TGrasH2, Ovarian follicle", "conditions": "in vivo, 672 h"}, "[19]": {"assay": "Tmax of aliskiren hemifumarate following 2 week oral dosing of aliskiren hemifumarate at 10 mg.Kg-1 level studied on […] in male Callithrix jacchus", "format": "ADME, organism-based", "conditions": "marmoset, plasma"}, "[20]": {"assay": "AUC (0-24h)/dose of aliskiren hemifumarate following 4 week oral dietary dosing of aliskiren hemifumarate at 1000 mg.Kg-1 level in female mouse", "format": "ADME, organism-based, CB6F1-TGrasH2, Plasma", "conditions": "in vivo"}, "[21]": {"assay": "AUC(0-24h) of aliskiren hemifumarate following 2 week oral dosing of aliskiren hemifumarate at 100 mg.Kg-1 level studied on day 1 in male Callithrix jacchus", "format": "ADME, organism-based", "conditions": "marmoset, plasma"}, "[22]": {"assay": "AUCspec of aliskiren hemifumarate following 2 week oral dosing of aliskiren hemifumarate at 100 mg.Kg-1 level studied on day 14 in male Callithrix jacchus", "format": "ADME, organism-based, Plasma", "conditions": "marmoset, in vivo, 336 h"}, "[23]": {"assay": "Cmax of aliskiren hemifumarate following repeated oral administration of [14C] aliskiren hemifumarate at 100 mg.Kg-1 level studied after 2h of dosing on day 10 in rat", "format": "ADME, organism-based, Albino HAN:WIST", "conditions": "in vivo, read-out: Cmax(10)"}, "[24]": {"assay": "Tmax (0-168h) of unlabeled aliskiren hemifumarate following single oral administration of aliskiren hemifumarate at 3 mg.Kg-1 level in marmoset", "format": "ADME, organism-based, Callithrix jacchus", "conditions": "plasma"}, "[25]": {"assay": "Oral clearance of SPP100 following single oral dose of SPP100 75 mg capsule studied in healthy human", "format": "ADME, organism-based", "conditions": "plasma"}, "[26]": {"target": "T1, CYP1A2 (Homo sapiens, UniProt P05177)", "T1 sequence (P05177 whole entry)": "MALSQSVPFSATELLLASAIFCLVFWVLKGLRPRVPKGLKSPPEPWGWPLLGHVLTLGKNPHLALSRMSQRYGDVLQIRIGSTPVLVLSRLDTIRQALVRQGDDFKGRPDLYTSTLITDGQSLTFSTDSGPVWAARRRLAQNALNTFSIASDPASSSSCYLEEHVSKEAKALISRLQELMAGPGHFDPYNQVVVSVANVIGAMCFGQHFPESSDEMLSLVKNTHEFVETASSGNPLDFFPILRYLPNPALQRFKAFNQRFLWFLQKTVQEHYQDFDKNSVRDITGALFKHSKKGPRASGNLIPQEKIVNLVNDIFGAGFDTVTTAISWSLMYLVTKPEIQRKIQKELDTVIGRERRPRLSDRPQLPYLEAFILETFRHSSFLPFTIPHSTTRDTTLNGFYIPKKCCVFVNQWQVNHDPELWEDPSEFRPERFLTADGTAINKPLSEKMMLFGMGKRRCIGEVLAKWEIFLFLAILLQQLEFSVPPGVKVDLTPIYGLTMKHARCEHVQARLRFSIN", "assay": "Inhibitory activity of 20 uM SPP100 on 502 Pmoles of cDNA-derived CYP1A2 enzyme in microsome prepared from human lymphoblastoid cell line", "format": "ADME, microsomes", "set-up": "conc 20 uM, interact cpd conc 50 uM", "conditions": "probe phenacetin"}, "[27]": {"target": "T1, CYP1A2", "assay": "Inhibitory activity of 200 uM SPP100 on 484 Pmoles of cDNA-derived CYP1A2 enzyme in microsome prepared from human lymphoblastoid cell line", "format": "ADME, microsomes", "set-up": "conc 200 uM, interact cpd conc 50 uM", "conditions": "probe phenacetin"}, "[28]": {"target": "T2, CYP2C19 (Homo sapiens, UniProt P33261)", "T2 sequence (P33261 whole entry)": "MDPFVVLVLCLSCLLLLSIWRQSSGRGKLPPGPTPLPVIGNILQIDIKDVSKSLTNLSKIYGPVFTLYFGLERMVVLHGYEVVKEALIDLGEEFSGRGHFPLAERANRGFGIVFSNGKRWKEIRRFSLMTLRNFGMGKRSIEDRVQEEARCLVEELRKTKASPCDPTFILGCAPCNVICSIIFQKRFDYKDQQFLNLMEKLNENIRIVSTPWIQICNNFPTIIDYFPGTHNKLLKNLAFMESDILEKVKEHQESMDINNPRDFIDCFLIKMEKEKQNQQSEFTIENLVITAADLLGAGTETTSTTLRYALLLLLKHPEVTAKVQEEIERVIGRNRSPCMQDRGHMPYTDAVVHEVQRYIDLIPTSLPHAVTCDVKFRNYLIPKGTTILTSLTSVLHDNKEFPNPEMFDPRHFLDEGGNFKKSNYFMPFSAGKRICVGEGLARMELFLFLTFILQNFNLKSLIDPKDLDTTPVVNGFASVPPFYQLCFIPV", "assay": "Inhibitory activity of 20 uM SPP100 on 1131 Pmoles of cDNA-derived CYP2C19 enzyme in microsome prepared from human lymphoblastoid cell line", "format": "ADME, microsomes", "set-up": "conc 20 uM, interact cpd conc 50 uM", "conditions": "probe (S)-mephenytoin"}, "[29]": {"target": "T2, CYP2C19", "assay": "Inhibitory activity of 20 uM SPP100 on 1214 Pmoles of cDNA-derived CYP2C19 enzyme in microsome prepared from human lymphoblastoid cell line", "format": "ADME, microsomes", "set-up": "conc 20 uM, interact cpd conc 50 uM", "conditions": "probe (S)-mephenytoin (50 uM)"}, "[30]": {"assay": "% SPP100 recovered in bile following single intravenous administration of 10 mg.Kg-1 [14C] aliskiren hemifumarate in male rat", "format": "ADME, organism-based, HAN:WIST(SPF)", "conditions": "in vivo"}, "[31]": {"assay": "% of radioactivity recovered as aliskiren in faeces following oral administration of [14C] aliskiren hemifumarate at 100 mg.Kg-1 level in rat", "format": "ADME, organism-based, Albino HAN:WIST, Feces", "conditions": "in vivo"}, "[32]": {"assay": "%Unchanged aliskiren in urine following 10 day repeated oral administration of [14C] aliskiren hemifumarate at 100 mg.Kg-1 level studied in rat", "format": "ADME, organism-based, Albino HAN:WIST", "conditions": "in vivo, 240 h"}}}
{"compound": "COCCCOc1cc(C[C@@H](C[C@H](N)[C@@H](O)C[C@H](C(=O)NCC([14CH3])([14CH3])C(N)=O)C(C)C)C(C)C)ccc1OC.O=C(O)/C=C/C(=O)O", "values": [{"measurement": "Absorption", "setting": "[1]", "result": 25, "unit": "%"}, {"measurement": "Radiolabel recovery", "setting": "[2]", "result": 51.5, "unit": "%"}, {"measurement": "Radiolabel recovery", "setting": "[3]", "result": 87.94, "unit": "%"}, {"measurement": "Radiolabel recovery", "setting": "[4]", "result": 89.8, "unit": "%"}, {"measurement": "Radiolabel recovery", "setting": "[5]", "result": 26.6, "unit": "%"}, {"measurement": "CL", "setting": "[6]", "result": 74.4, "unit": "µL·min/nmol"}, {"measurement": "Radiolabel recovery", "setting": "[7]", "result": 2.5, "unit": "%"}, {"measurement": "Tmax(10)", "setting": "[8]", "result": 218, "unit": "h"}, {"measurement": "Tmax", "setting": "[9]", "result": 4.98, "unit": "min"}, {"measurement": "Cmax", "setting": "[10]", "result": 359, "unit": "nM"}, {"measurement": "AUC", "setting": "[11]", "result": 4.84, "unit": "µM·h"}, {"measurement": "AUC", "setting": "[12]", "result": 52.92, "unit": "µM·h"}, {"measurement": "Activity", "setting": "[13]", "result": 0.06, "unit": "%"}]}
{"compound": "COCCCOc1cc(C[C@@H](C[C@H](N)[C@@H](O)C[C@H](C(=O)NCC(C)(C)C(N)=O)C(C)C)C(C)C)ccc1OC.COCCCOc1cc(C[C@@H](C[C@H](N)[C@@H](O)C[C@H](C(=O)NCC(C)(C)C(N)=O)C(C)C)C(C)C)ccc1OC.O=C(O)/C=C/C(=O)O", "note": "[ALISKIREN FUMARATE]", "values": [{"measurement": "Cmax", "setting": "[14]", "result": 146, "unit": "ng/mL"}, {"measurement": "Tmax", "setting": "[15]", "result": 2.8, "unit": "h"}, {"measurement": "AUC", "setting": "[16]", "result": 1190, "unit": "ng·h/mL"}, {"measurement": "Tmax", "setting": "[17]", "result": 1, "unit": "h"}, {"measurement": "Change in ovarian follicular atresia", "setting": "[18]", "result": "OUTCOME = Increased. No animals died during the study."}, {"measurement": "Tmax", "setting": "[19]", "result": 2, "unit": "h"}, {"measurement": "AUC normalised", "setting": "[20]", "result": "2.28 ((ng/mL).hours)/(mg/kg/day)"}, {"measurement": "AUC(0-t) at 24 h", "setting": "[21]", "result": 76400, "unit": "ng·h/mL"}, {"measurement": "AUC normalised", "setting": "[22]", "result": "1.09 ((ug.h.ml-1)/(mg/kg)"}, {"measurement": "Cmax", "setting": "[23]", "result": 357, "unit": "nM"}, {"measurement": "Tmax", "setting": "[24]", "result": 2, "unit": "h"}]}
{"compound": "COCCCOc1cc(C[C@@H](C[C@H](N)[C@@H](O)C[C@H](C(=O)NCC(C)(C)C(N)=O)C(C)C)C(C)C)ccc1OC", "values": [{"measurement": "CL/F", "setting": "[25]", "result": 4900, "unit": "mL/min"}, {"measurement": "inhibition at 20 µM", "setting": "[26]", "result": 2.5, "unit": "%"}, {"measurement": "inhibition at 200 µM", "setting": "[27]", "result": 6, "unit": "%"}, {"measurement": "inhibition at 20 µM", "setting": "[28]", "result": 5.1, "unit": "%"}, {"measurement": "inhibition at 20 µM", "setting": "[29]", "result": -1.9, "unit": "%"}, {"measurement": "Compound recovery", "setting": "[30]", "result": 64.3, "unit": "%"}, {"measurement": "Compound recovery", "setting": "[31]", "result": "> 40", "unit": "%"}, {"measurement": "Compound recovery", "setting": "[32]", "result": 43, "unit": "%"}]}
